Patent US12642791B2, “Inhibitors of lysyl oxidases” (UNIVERSITY OF SOUTH CAROLINA, priority 2021, dated 2026)
One block for each compound: values may come before it.

Key:
HFF cells = assay: Fibrosis assay (TGF-beta induced, alpha-SMA and fibronectin staining); assay type: cell-based, human; conditions: 10 uM compound, 1 hour pretreatment, TGF-β 48 hours
Protocol: FIG. 40. […] 24 hours serum-starved HFF cells were pretreated with inhibitors 1 hours. Then, fibrosis was induced by […] of TGF-β for 48 hours in HFF cells. ALK5 (10 μM) inhibitor is used as a negative control. LOX inhibitors 6232, 6403 and 6415 were used at 10 uM concentration. HFF cells were stained with alpha-SMA and fibronectin primary antibodies. Nucleus of the cells was labeled with DAPI.
Human foreskin fibroblasts (HFF), see Li, M. et al. Icaritin inhibits skin fibrosis through regulating AMPK and Wnt/β-catenin signaling. Cell Biochemistry and Biophysics 79, 231-238 (2021), cells were seeded into μ-Slide 8-well glass bottom chambers (Ibidi, Germany). Next day, media of the cells were replaced with 0.5% FBS contain media and incubated with 24 hours. Then, cells were pretreated either with ALK5 inhibitor (Sellekchem, USA) or LOX inhibitors for 1 hour and cells were incubated with 10 ng/ml of TGF-beta (R&D Biosystems, USA) for 48 hours. Staining of the markers followed the same procedure described in the Immunofluorescence section above.

[1] = system: MDA-MB-231 cells embedded in collagen I; assay: ECM crosslinking by collagen and fibronectin immunofluorescence staining; assay type: cell-based, human
Protocol: FIG. 31. […] A. Inhibition of LOX activity in MDA-MB-231 cells treated with 5 μM of the LOX inhibitors. B. Doxorubicin sensitization with 6232 and its analogs, 6403 and 6415, in 3D collagen-I culture. C. Collagen and fibronectin staining of vehicle or 6232 or 6403 or 6415-treated MDA-MB-231 cells embedded in collagen I. BAPN is used as a positive control.
Immunofluorescence staining of cells was done in μ-Slide 8-well glass bottom chambers (Ibidi, Germany). Cells were fixed with 4% paraformaldehyde for 20 min, permeabilized with 0.5% Triton X-100 for 10 min and blocked in 5% BSA-PBS. Samples were incubated with primary (Collagen I, Fibronectin, F-actin, a-SMA) and secondary Alexa Fluor 647 or 488-labeled antibodies for 1.5 hours at room temperature. Cells were also counterstained with DAPI for 5 min. Images were acquired using ZEN 2012 SP5 (Black) LSM 700 (Carl Zeiss, DE).

[2] = system: cellular LOX activity, Caki-1; assay: Cell-based LOX activity in kidney cancer cell line; set-up: species or system human
Protocol: FIG. 39. Inhibition of cellular LOX activity in pancreatic and kidney cancer cell lines. Inhibition of cellular LOX activity upon the treatment with BAPN, 6232, 6403 and 6415 in kidney cell line Caki-1 (A) and pancreatic cancer cell lines Mia-Paca-2 (B) and PANC1 (C).
For cell-based lysyl oxidase activity, fluorometric Lysly Oxidase Activity Assay Kit (Abcam, USA) was used according to manufacturer's instructions. Briefly, after the treatment, 50 μl of supernatant from each well was incubated with reagent mix and fluorescence measured in multimode-reader at Ex/Em=540/590 nm wavelength.

[3] = system: ACHN kidney cancer cell line; assay: Growth inhibition in 3D collagen:matrigel culture (3D Cell Titer Glo); assay type: cell-based, human; conditions: collagen:matrigel (1:1), uM range
Protocol: FIG. 38. Dose dependent inhibition of cellular LOX activity and growth inhibition in 3D upon treatment with 6232 and its analogs, 6403 and 6415.in ACHN cancer cell line. Inhibition of cell-based LOX activity in ACHN (A) and growth inhibition in collagen:matrigel (1:1) culture (B) cancer cell lines upon treatment with LOX inhibitors 6232, 6403 and 6415 (uM range). BAPN is used as a positive control (mM range) in 3D cell viability assay. Growth inhibition was measured by using 3D Cell Titer Glo kit.
Collagen solution was prepared at a concentration of 0.5-1 mg/ml from the rat tail collagen I (Corning, USA) with a neutralization step including the addition of 1N NaOH solution. Cells were trypsinazed and resuspended in collagen:matrigel mix (1:1). 8×10^3 cells were seeded into 96-well or μ-Slide 8-well glass bottom chambers. After 1 hour of incubation at room temperature, media was added on top of the solidified collagen:matrigel mix. Drug treatments were done 12 hours after cell seeding.

MCF12A = assay: Viability assay in normal cells; assay type: cell-based, human; conditions: normal breast cell line
Excerpt: FIG. 32. 6232 derivatives, 6403 and 6415, show no cytotoxicity in normal cells. Viability assay in normal breast cell line, MCF12A, human foreskin fibroblast cell line, HFF and human endothelial cell line, HUVEC treated with 6403 or 6415.

recombinant LOX = biological target: T1, recombinant LOX (Homo sapiens, UniProt P28300); assay: Lysyl oxidase activity assay with recombinant LOX protein; assay type: biochemical; conditions: for inhibition of recombinant LOX: 10 μM compound; for selectivity LOX versus LOXL2 / LOX family: recombinant proteins
T1 construct: purchased Novus, USA
T1 sequence (P28300 169-417): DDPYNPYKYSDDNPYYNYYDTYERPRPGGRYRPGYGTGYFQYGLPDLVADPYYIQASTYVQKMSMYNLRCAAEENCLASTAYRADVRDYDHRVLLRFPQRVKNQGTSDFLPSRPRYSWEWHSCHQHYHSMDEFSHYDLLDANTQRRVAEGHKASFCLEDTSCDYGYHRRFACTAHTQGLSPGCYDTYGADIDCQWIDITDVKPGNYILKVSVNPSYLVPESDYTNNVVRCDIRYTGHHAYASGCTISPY
Protocol: For in vitro lysyl oxidase activity (for recombinant proteins), Lysyl Oxidase Activity kit (Biovision, USA) was used according to manufacturer's instructions. Briefly, 1 μg of LOX (Novus, USA), 0.2 μg of LOXL1 (Abcam, USA) and 0.1 μg of LOXL2 (Abcam, USA) were incubated with the reagent mix in the presence of inhibitors or vehicle. Lysyl oxidase activity of the wells was measured in multimode reader (every 30 sec, total 2.5 hours) in […] mode.

- inhibition of recombinant LOX (recombinant LOX): inhibits LOX recombinant protein
SMILES: CC(=O)Nc1ccc(Nc2nc(-c3sc(N)nc3C)cs2)cc1 [compound 6403, N-[4-[[4-(2-amino-4-methyl-thiazol-5-yl)thiazol-2-yl]amino]phenyl]acetamide]
- TGF-β-induced fibrosis (alpha-SMA, fibronectin staining) (HFF cells): inhibited the TGF-β-induced fibrosis
- ECM crosslinking (collagen and fibronectin staining) [1]: decrease in ECM crosslinking
- cellular LOX activity [2]: inhibited cellular LOX activity
- cell viability in 3D culture [3]: decrease in cell viability in 3D culture
- cell viability (cytotoxicity in normal cells) (MCF12A): no significant change in cell viability
- selectivity LOX versus LOXL2 / LOX family (recombinant LOX): more potent and selective inhibitor against LOX compared to LOXL2

- inhibition of recombinant LOX (recombinant LOX): strongly inhibit
SMILES: Cc1nc(N)sc1-c1csc(Nc2ccc([N+](=O)[O-])cc2)n1 [compound 6232, 4-methyl-5-[2-(4-nitroanilino)thiazol-4-yl]thiazol-2-amine]
- TGF-β-induced fibrosis (alpha-SMA, fibronectin staining) (HFF cells): inhibited the TGF-β-induced fibrosis
- ECM crosslinking (collagen and fibronectin staining) [1]: decrease in ECM crosslinking
- cellular LOX activity [2]: inhibited cellular LOX activity
- cell viability in 3D culture [3]: decrease in cell viability in 3D culture

- selectivity LOX versus LOXL2 / LOX family (recombinant LOX): more like a LOX/LOXL2 inhibitor
SMILES: Cc1nc(N)sc1-c1csc(N(C)c2ccc(O)cc2)n1 [compound 6415, 4-[[4-(2-amino-4-methyl-thiazol-5-yl)thiazol-2-yl]-methyl-amino]phenol]
- TGF-β-induced fibrosis (alpha-SMA, fibronectin staining) (HFF cells): inhibited the TGF-β-induced fibrosis
- ECM crosslinking (collagen and fibronectin staining) [1]: decrease in ECM crosslinking
- cellular LOX activity [2]: inhibited cellular LOX activity
- cell viability in 3D culture [3]: decrease in cell viability in 3D culture
- cell viability (cytotoxicity in normal cells) (MCF12A): no significant change in cell viability
- inhibition of recombinant LOX (recombinant LOX): inhibits both LOX and LOXL2 recombinant proteins
- inhibition of recombinant LOX activity (recombinant LOX; 5 and 10 uM): inhibited the activity of LOX and LOXL2 recombinant proteins
- selectivity LOX versus LOXL2 / LOX family (recombinant LOX; listed as 4-((2′-amino-4′-methyl-[4,5′-bithiazol]-2-yl)(methyl)amino)phenol): non-selective inhibitor of the LOX family of enzymes
